Reference: patent US7838534B2, “Quinuclidine derivatives as M3 antagonists” (Chiesi Farmaceutici S.p.A., priority 2006, dated 2010)

Test: lung retention after intratracheal administration (lung homogenate, plasma)
Format: in vivo
Conditions: guinea pig lung; for C48L/C0.5L (amount in the lung 48 hours vs 0.5 hours after administration): intratracheal administration
Excerpt: MRTL and […]/C0.5L (%) are two meaningful and predictive parameters of the duration of a drug's effect after single dose pulmonary administration.

| SMILES | C48L/C0.5L (amount in the lung 48 hours vs 0.5 hours after administration) [%] | MRT (lung homogenate, inhaled or intranasal, intratracheal 10 nmol/kg, read-out: MRTL (Mean Residence Time in the Lung)) [h] |
| --- | --- | --- |
| C[N+]1(C)[C@@H]2C[C@@H](OC(=O)C(O)(c3cccs3)c3cccs3)C[C@H]1[C@@H]1O[C@@H]12 [tiotropium bromide] | 2.3 | 7.1 |
| CC(C)[N+]1(C)[C@@H]2CC[C@H]1CC(OC(=O)C(CO)c1ccccc1)C2.[Br-] (stereo partly drawn) [ipratropium bromide] | 0.3 | – |
